Data reported in paper PMC11477141, “Chemokine Receptor N-Terminus Charge Dictates Reliance on Post-Translational Modifications for Effective Ligand Capture and Following Boosting by Defense Peptides” (International Journal of Molecular Sciences, 2024).
Where no end group is shown, it is not given here.

Legend:
CCR1 = target: T1, CCR1 (Homo sapiens, UniProt P32246); assay: BRET CAMYEL cAMP sensor assay of ligand-induced Gαi signaling via CCR1; type: cell-based; conditions: n = 3
T1 construct: expressed in transfected cells; host or cells: CHO-K1, CHO-pgsB618 (GAG-minus), HEK293 WT / DeltaSia / sC
T1 sequence (P32246 1-355): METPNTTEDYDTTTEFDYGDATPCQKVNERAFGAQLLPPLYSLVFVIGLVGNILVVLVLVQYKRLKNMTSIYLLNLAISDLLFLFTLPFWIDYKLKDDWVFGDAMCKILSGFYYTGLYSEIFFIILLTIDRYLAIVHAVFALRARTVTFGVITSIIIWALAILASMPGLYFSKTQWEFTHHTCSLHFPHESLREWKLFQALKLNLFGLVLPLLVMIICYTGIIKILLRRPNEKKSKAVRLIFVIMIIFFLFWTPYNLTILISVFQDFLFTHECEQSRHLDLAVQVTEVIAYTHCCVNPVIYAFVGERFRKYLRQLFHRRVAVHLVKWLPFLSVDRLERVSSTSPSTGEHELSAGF
Description: For quantification of signaling initiated immediate downstream of receptor activation, we used the cAMP binding CAMYEL sensor to perform bioluminescence resonance energy transfer (BRET)-based assays. Shortly, in this assay increased receptor activation leads to an increase in BRET ratio. For detailed information see the Materials and Methods section.
In signaling assays testing the boosting ability of basic peptides, transfected cells were aliquoted into 96-well plates in the presence of 10 µM peptide or PBS vehicle. After R-Luc substrate addition, chemokines were added to reach final concentrations ranging from 0–100 nM (0, 0.1, 1, 10, and 100 nM) and forskolin was applied before reading emission at 475 and 525 nm.
BRET measurements of Gαi signaling and β-arrestin recruitment: Cells were seeded in 6-well plates (500,000 cells/well) and transiently transfected the following day. For BRET measurements of Gαi signaling, cells were transfected with vectors encoding the human chemokine receptors as indicated (160 ng/well) and the CAMYEL sensor (cAMP sensor, YFP-Epac-RLuc) (840 ng/well) using Lipofectamine (6 µL/well). Briefly, DNA was dissolved in 125 µL OPTI-MEM and Lipofectamine was dissolved in 125 µL OPTI-MEM. The DNA and Lipofectamine solutions were combined into a transfection mixture. The transfection mixture was added dropwise to cells incubated in OPTI-MEM (1 mL/well). Transfections were terminated after 5 h by adding 1 mL of fresh culture medium on top of the OPTI-MEM. The following day the cells were loosened from the plates in PBS with 5 mM glucose and subsequently aliquoted in white 96-well iso plates (~25,000 cells/well). When using C21TP variants and defense peptides (hBD2 and histatin), these were added to a final concentration of 10 μM/well, while an equal amount of PBS was added to control cells. The bioluminescence substrate coelenterazine was added to a final conc. of 5 µM. After 10 min, varying ligand concentrations were added. For BRET measurements of Gαi signaling, forskolin was added 5 min after the addition of the ligand, to a final conc. of 5 µM. The plates were kept in the dark at all times. A Perkin Elmer Envision machine was used for measuring the emission signals at 530 and 480 nm. The BRET signal is determined as the ratio eYFP (530 nm)/Rluc (480 nm).
BRET principle with CAMYEL: For quantification of signaling initiated immediately downstream of receptor activation, we used the cAMP binding CAMYEL sensor to perform bioluminescence resonance energy transfer (BRET) based assays. In this assay we measure changes in intracellular cAMP levels in response to receptor activation. Activation of chemokine receptors lead to a decrease in cAMP through inhibition of adenylate cyclase (AC). In the current setup we initially add forskolin that stimulates AC directly to induce an increase in intracellular cAMP, and we then measure the ability of a ligand (chemokine) to counteract the forskolin-induced increase in cAMP. The cAMP sensor (CAMYEL cAMP sensor, YFP-Epac-RLuc) carries the donor Renilla luciferase (Rluc) and the acceptor YFP. Coelenterazine is a substrate for Rluc that will emit light at around 475 nm upon enzymatic cleavage catalyzed by Rluc. When Rluc and YFP are in close proximity, the energy from the emitted light from coelenterazine can be transferred to YFP, resulting in an excitation of YFP, leading to a BRET signal around 525 nm. EPAC is a cAMP binding protein that changes conformation upon cAMP binding. During low cAMP concentrations, Rluc and YFP are near each other, and a strong BRET signal at 525 nm is obtained. When cAMP levels increase, cAMP will bind to EPAC, creating a conformational change, separating Rluc and YFP, reducing the BRET ratio, and increasing the emission from Rluc at 475 nm. Thus, by measuring the ratio between the cAMP-bound (475 nm) and the cAMP-free (525 nm) state of CAMYEL we obtain a measure of receptor activation. […]

[1] = tested on: peptides corresponding to the CCR5 receptor N-terminus; conditions: cited from earlier work
Text: CCR5, in contrast to CCR1, has an N-terminus that is sparse in acidic amino acids but has multiple tyrosine sulfation sites as well as O-glycosylation sites, that might increase the negative charge of the receptor N-terminus through post-translational modifications. CCL5 affinity towards peptides corresponding to the CCR5 receptor N-terminus increases by ≥100-fold if the peptides are sulfated on Y10 and Y14 [30], and the same tyrosine sulfation is needed for HIV1env protein binding and viral entry.

naked CCR5 N-terminus = assay: Fluorescence polarization binding to FAM-labeled CCR5 N-terminal peptide; set-up: species or system human
Description: Fluorescence polarization (FP) assay: The carboxyfluorescein (FAM)-labeled peptides representing the CCR1 and CCR5 N-termini functioned as the probes for quantifying the interaction between the receptor N-terminus and C21TP^81-111. The probe was diluted in FP buffer (1:3, PBS:MilliQ) and 10 µL was added to a final concentration of 250 nM per well in a black 384-well plate (Corning). The C21TP^81-111 peptide (2 mM) was diluted using a two-fold dilution series; 30 µL of the peptide was added to each well to final concentrations ranging from 12.21 nM to 100 µM. Blanks containing 10 µL probe and 30 µL FP buffer were included. The plate was spun down at 1000 rpm for 1 min and the FP signal was measured on a Flex station using SoftMax Pro software 7.0. Each experiment was conducted in triplicate. The binding curves were generated by plotting the FP signal, expressed as millipolarization units (mP), against C21TP^81-111 concentration. The dissociation constant (Kd) value was calculated using GraphPad Prism 9.
Probes: • CCR1: (5,6-FAM)-[…], • CCR5: (5,6-FAM)-ADYQVSSPIYDINYYTSEP.

[2] = CHO-K1 cells, 10 µM peptide, chemokine 0-100 nM
[3] = HEK293 WT, DeltaSia and sC cells, 10 µM peptide

## CCL5: human chemokine from Peprotech, overall basic
CCR1; CHO GAG-minus cells (CHO-pgsB618)
  LogEC50 of CCL5-induced Gαi signaling via CCR1: −9.42 ± 0.131
CCR1; CHO GAG-plus (WT CHO-K1) cells
  LogEC50 of CCL5-induced Gαi signaling via CCR1: −8.89 ± 0.133
CCR1; HEK293 DeltaSia and sC, CCL5 oligomerization variants experiment
  Gαi signaling via CCR1 in DeltaSia and sC cells: remains high
CCR1; HEK293 DeltaSia and sC
  Gαi signaling via CCR1 in DeltaSia and sC cells compared to WT cells: persists in DeltaSia and sC to almost the same high level as observed in WT cells
[1]
  increase of affinity towards CCR5 N-terminus peptides if sulfated on Y10 and Y14: ≥ 100 fold

## RKDRGASKTGKKGKGSKGCKRTERSQTPKGP [C21TP^81-111]
CCR1; CHO GAG-plus and CHO GAG-minus (CHO-pgsB618) cells, 10 µM peptide
  boosting of CCL5 signaling via CCR1 in GAG-plus and GAG-minus cells: boosted
CCR1; [2]
  boosting of CCL5-induced Gαi signaling via CCR1: boosted
  boosting of CCL7-induced Gαi signaling via CCR1: boosted
  effect on CCL3-induced Gαi signaling via CCR1: not affected
CCR1; HEK293 DeltaSia cells, 10 µM peptide
  boosting of signaling by CCL5, E26A and E66A via CCR1: tendency for boosting
CCR1; HEK293 WT cells, 10 µM peptide
  boosting of signaling by CCL5, E26A and E66A via CCR1: boosting occurs with all three versions of CCL5
CCR1; [3]
  boosting of CCL3 signaling via CCR1: not boosted
  boosting of CCL5 signaling via CCR1: preserved across all three cell lines
  boosting of CCL7 signaling via CCR1: persists
CCR1; HEK293 sC cells, 10 µM peptide
  boosting of signaling by CCL5, E26A and E66A via CCR1: significant boosting
Naked CCR5 N-terminus
  binding to the naked CCR5 N-terminus: no such binding is observed
